Experimental data taken from paper PMC7481407, “Inhibition of Pendrin by a small molecule reduces Lipopolysaccharide-induced acute Lung Injury” (Theranostics, 2020).

Target: T1, pendrin (Homo sapiens, UniProt O43511)
T1 construct: gene SLC26A4; human wild-type pendrin expressed in human alveolar epithelial cells (hAEC)
T1 sequence (O43511 1-780): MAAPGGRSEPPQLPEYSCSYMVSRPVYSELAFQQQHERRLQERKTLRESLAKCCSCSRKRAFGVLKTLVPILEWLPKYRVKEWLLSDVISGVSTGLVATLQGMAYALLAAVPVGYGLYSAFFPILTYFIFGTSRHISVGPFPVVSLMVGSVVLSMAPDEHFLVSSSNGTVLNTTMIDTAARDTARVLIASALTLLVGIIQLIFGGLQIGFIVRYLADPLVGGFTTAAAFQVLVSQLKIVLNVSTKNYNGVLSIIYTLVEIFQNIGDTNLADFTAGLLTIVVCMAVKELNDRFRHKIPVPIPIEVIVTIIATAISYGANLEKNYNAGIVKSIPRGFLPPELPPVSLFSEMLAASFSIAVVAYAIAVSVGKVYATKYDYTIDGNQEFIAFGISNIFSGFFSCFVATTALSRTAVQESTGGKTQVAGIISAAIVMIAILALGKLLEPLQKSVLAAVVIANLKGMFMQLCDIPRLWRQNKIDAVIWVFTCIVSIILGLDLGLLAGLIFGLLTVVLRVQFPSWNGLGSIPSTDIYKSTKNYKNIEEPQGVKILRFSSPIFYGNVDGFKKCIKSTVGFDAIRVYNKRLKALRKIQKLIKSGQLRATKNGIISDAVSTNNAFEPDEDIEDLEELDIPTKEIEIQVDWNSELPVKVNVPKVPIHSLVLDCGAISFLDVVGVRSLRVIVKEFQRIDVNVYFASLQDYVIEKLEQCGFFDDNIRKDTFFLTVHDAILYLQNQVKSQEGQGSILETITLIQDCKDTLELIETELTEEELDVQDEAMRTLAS
Assay: Cl-/SCN- exchange activity assay in pendrin-transfected human alveolar epithelial cells, dose-response
Assay type: cell-based

IC50: 4.7 ± 0.82 µM
Structure (SMILES): CC(C)(C)c1ccc(C2=N/C(=C/c3cccs3)C(=O)O2)cc1 [YS-01]
